Experimental data: US6987184B2, “Isothiazoloanthrones, isoxazoloanthrones, isoindolanthrones and derivatives thereof as JNK inhibitors and compositions and methods related” (Signal Pharmaceuticals, LLC, priority 2001, dated 2006)

What was measured:
[1] = system: rat ventral mesencephalan neurons; test: [3H]Dopamine cell culture assay (6-OHDA neurotoxicity); format: cell-based; settings: approximately 3×10^−6 M compound; 6-OHDA 30 μM; uptake 22 hrs after exposure; FIG. 1
Method: Cultures of dopaminergic neurons were prepared according to a modification of the procedure described by Raymon and Leslie (J. Neurochem. 62, 1015-1024, 1994). Time-mated pregnant rats were sacrificed on embyronic day 14-15 (crown rump length 11-12 mm) and the embryos removed by cesarean section. The ventral mesencephalon, containing the dopaminergic neurons, was dissected from each embryo. Tissue pieces from approximately 48 embryos were pooled and dissociated both enzymatically and mechanically. An aliquot from the resulting cell suspension was counted and the cells were plated in high glucose DMEM/F12 culture medium with 10% fetal bovine serum at a density of 1×10^5 cells/well of a Biocoat poly-D-lysine-coated 96-well plate. The day following plating was considered 1 day in vitro (DIV). Cells were maintained in a stable environment at 37° C., 95% humidity, and 5% CO2. A partial medium change was performed at 3 DIV. […]
[^3H]Dopamine uptake is used as a measure of the health and integrity of dopaminergic neurons in culture (Prochiantz et al., PNAS 76: 5387-5391, 1979). […] Briefly, cells treated with 6-OHDA in the presence and absence of Compound CC were assessed in the uptake assay 22 hrs after exposure to 6-OHDA. […] Radioactivity was removed and the cultures were washed 3× with ice cold PBS. […]

[2] = Brain-blood plasma distribution in vivo; set-up: species or system Sprague-Dawley rats; settings: rat, 10 mg/kg intravenously, 2 hr post-dose
Method: Compound CC was administered intravenously (10 mg/kg) into the veins of Sprague-Dawley rats. After 2 hr, blood samples were obtained from the animals and their vascular systems were perfused with approximately 100 mL of saline to rid their brains of blood. The brains were removed from the animals, weighed, and homogenized in a 50 mL conical tube containing 10 equivalents (w/v) of methanol/saline (1:1) using a Tissue Tearer (Fischer Scientific). The homogenized material was extracted by adding 600 μL of cold methanol to 250 μL of brain homogenate vortexed for 30 sec and subjected to centrifugation for 5 min. After centrifugation, 600 μL of the resulting supernatant was transferred to a clean tube and evaporated at room temperature under reduced pressure to provide a pellet. […] The brain homogenate analysis samples, plasma analysis samples, and standard analysis samples were analyzed and compared using HPLC by injecting 100 μL of a sample onto a 5 μm C-18 Luna column (4.6 mm×150 mm, commercially available from Phenomenex of Torrance, Calif.) and eluting at 1 mL/min with a linear gradient of 30% aqueous acetonitrile containing 0.1% trifluoroacetic acid to 90% aqueous acetonitrile containing 0.1% trifluoroacetic acid over 8 minutes and holding at 90% aqueous acetonitrile containing 0.1% trifluoroacetic acid for 3 min. with absorbance detection at 450 nm. […]

[3] = Solubility in aqueous media; format: physicochemical

Q: Which “protection of neurons from 6-OHDA, by [3H]dopamine uptake” value [1] does the source give for `Nc1ccc2snc3c2c1C(=O)c1ccccc1-3` [Compound CC] here?
A: protects rat ventral mesencephalan neurons from the toxic effects of 6-OHDA

Q: What about the brain-drug concentration [2] of the same compound?
A: approximately 65 nmole/g

Q: What about the “solubility in aqueous media” value [3] of the same compound?
A: limited solubility
